{"source": "patent US20140315876A1", "about": "“BETA-LACTAMASE INHIBITORS” (priority 2013, published 2014)", "note": "Where a name gives a salt, the structure may show the parent alone."}
{"test_system": "bacterial strains that express the class D cephalosporinase OXA-15", "experiment": "Synergy MIC / standard BLI potentiation MIC assay, strains expressing OXA-15", "format": "cell-based, E. coli", "conditions": "in the presence of a β-lactam; comparator Avibactam (comparator compound CCC)", "experimental": "The experimental protocol was performed according to Clinical and Laboratory Standards Institute (CLSI) guidelines with modifications as described below (CLSI guidelines can be derived from the CLSI document M07-A9 published in January 2012: “Methods for Dilution Antimicrobial Susceptibility Tests for Bacteria That Grow Aerobically; Approved Standard-Ninth Edition”).\nTo prepare for MIC testing, frozen glycerol stocks of clinical isolates (Klebsiella pneumoniae, Eschericia coli, Enterobacter spp, Citrobacter spp, or Pseudomonas aeruginosa) were used to streak for isolated colonies on rich, non-selective, tryptic soy agar containing 5% sheep's blood (TSAB). Frozen glycerol stocks of laboratory engineered, isogenic E. coli strains, which contain cloned β-lactamase expressing plasmids were used to streak for isolated colonies on rich, selective LB agar supplemented with 25 μg/mL tetracycline to maintain the plasmid. All strains were incubated at 37° C. for 18-24 hrs.\nOn the day of testing, primary cultures were started by scraping off 5-10 colonies from the TSAB plates containing clinical strains or the tetracycline supplemented LB plates containing engineered strains. The clinical strain material was suspended in ˜5 mL of cation adjusted Mueller Hinton Broth (CAMHB) in 14 mL culture tubes. The engineered strain material was suspended in CAMHB (supplemented with 25 μg/mL tetracycline) in 14 mL culture tubes. All strains were incubated at 37° C. with aeration (200 rpm) for ˜2 hrs until the optical density at 600 nm (OD600) was ≧0.1.\nThe two compound components of the assay were each diluted in CAMHB and added to the 96-well broth microdilution assay plates. 50 μL of the β-lactam was added to each well of the assay plate in 2-fold dilutions with final concentrations ranging from 128 to 0.13 μg/mL. 25 μL of the BLI compound was added to all wells in the broth microdilution plates at a final concentration of 4 μg/mL. Inoculum cultures were prepared by standardizing the primary cultures to OD600=0.1 and then adding 20 μL of the adjusted primary culture per 1 mL CAMHB for clinical strains or CAMHB (supplemented with tetracycline at 100 μg/mL) for engineered strains, so that the final inoculum density was ˜10^5 colony forming units per milliliter. Diluted inoculum cultures were used to inoculate 25 μL per well in 96-well broth microdilution assay plates. The final volume of each well was 100 μL and contained a β-lactam at different concentrations, a BLI compound at 4 μg/mL concentration, the bacterial culture at an OD600 of approximately 0.001 and when necessary tetracycline at 25 μg/mL.\nPlates were incubated for 18-20 hours at 37° C. with aeration (200 rpm). Following incubation, growth was confirmed visually placing plates over a viewing apparatus (stand with a mirror underneath) and then OD600 was measured using a SpectraMax 340PC384 plate reader (Molecular Devices, Sunnyvale, Calif.). Growth was defined as turbidity that could be detected with the naked eye or achieving minimum OD600 of 0.1. MIC values were defined as the lowest concentration producing no visible turbidity.\nThe synergy MIC (sMIC) assay determines the concentration of the BLI required to potentiate the activity of a fixed concentration of a β-lactam antibiotic against β-lactamase producing bacterial strains. The experimental protocol was performed according to Clinical and Laboratory Standards Institute (CLSI) guidelines with modifications as described below (CLSI guidelines can be derived from the CLSI document M07-A9 published in January 2012: “Methods for Dilution Antimicrobial Susceptibility Tests for Bacteria That Grow Aerobically; Approved Standard-Ninth Edition”). […]"}
{"smiles": "N=C(N)NCc1nnc([C@@H]2CC[C@@H]3CN2C(=O)N3OS(=O)(=O)O)o1", "note": "[Compound 704, (2S,5R)-2-(5-(guanidinomethyl)-1,3,4-oxadiazol-2-yl)-7-oxo-1,6-diazabicyclo[3.2.1]octan-6-yl hydrogen sulfate]", "activity against bacterial strains that express the class D cephalosporinase OXA-15, compared with Avibactam": "more active than Avibactam"}
{"smiles": "Nc1nnc([C@@H]2CC[C@@H]3CN2C(=O)N3OS(=O)(=O)O)o1", "note": "[Compound 707, (2S,5R)-2-(5-amino-1,3,4-oxadiazol-2-yl)-7-oxo-1,6-diazabicyclo[3.2.1]octan-6-yl hydrogen sulfate]", "activity against bacterial strains that express the class D cephalosporinase OXA-15, compared with Avibactam": "more active than Avibactam"}
{"smiles": "N=C(N)N1CCC(c2nnc([C@@H]3CC[C@@H]4CN3C(=O)N4OS(=O)(=O)O)o2)CC1", "note": "[Compound 712, (2S,5R)-2-(5-(1-carbamimidoylpiperidin-4-yl)-1,3,4-oxadiazol-2-yl)-7-oxo-1,6-diazabicyclo[3.2.1]octan-6-yl hydrogen sulfate]", "activity against bacterial strains that express the class D cephalosporinase OXA-15, compared with Avibactam": "more active than Avibactam"}
{"smiles": "O=C1N2C[C@@H](CC[C@H]2c2nnc(N3CCNCC3)o2)N1OS(=O)(=O)O", "note": "[Compound 713, (2S,5R)-7-oxo-2-(5-(piperazin-1-yl)-1,3,4-oxadiazol-2-yl)-1,6-diazabicyclo[3.2.1]octan-6-yl hydrogen sulfate]", "activity against bacterial strains that express the class D cephalosporinase OXA-15, compared with Avibactam": "more active than Avibactam"}
{"smiles": "N=C(N)NCCCc1nnc([C@@H]2CC[C@@H]3CN2C(=O)N3OS(=O)(=O)O)o1", "note": "[Compound 714, (2S,5R)-2-(5-(3-guanidinopropyl)-1,3,4-oxadiazol-2-yl)-7-oxo-1,6-diazabicyclo[3.2.1]octan-6-yl hydrogen sulfate]", "activity against bacterial strains that express the class D cephalosporinase OXA-15, compared with Avibactam": "more active than Avibactam"}
{"smiles": "NCC(O)c1nnc([C@@H]2CC[C@@H]3CN2C(=O)N3OS(=O)(=O)O)o1", "note": "(stereo partly drawn) [Compound 715, (2S,5R)-2-(5-(2-amino-1-hydroxyethyl)-1,3,4-oxadiazol-2-yl)-7-oxo-1,6-diazabicyclo[3.2.1]octan-6-yl hydrogen sulfate]", "activity against bacterial strains that express the class D cephalosporinase OXA-15, compared with Avibactam": "more active than Avibactam"}
{"smiles": "NCCNCCc1nnc([C@@H]2CC[C@@H]3CN2C(=O)N3OS(=O)(=O)O)o1", "note": "[Compound 716, (2S,5R)-2-(5-(2-((2-aminoethyl)amino)ethyl)-1,3,4-oxadiazol-2-yl)-7-oxo-1,6-diazabicyclo[3.2.1]octan-6-yl hydrogen sulfate]", "activity against bacterial strains that express the class D cephalosporinase OXA-15, compared with Avibactam": "more active than Avibactam"}
{"smiles": "NCC(N)c1nnc([C@@H]2CC[C@@H]3CN2C(=O)N3OS(=O)(=O)O)o1", "note": "(stereo partly drawn) [Compound 717, (2S,5R)-2-(5-(1,2-diaminoethyl)-1,3,4-oxadiazol-2-yl)-7-oxo-1,6-diazabicyclo[3.2.1]octan-6-yl hydrogen sulfate]", "activity against bacterial strains that express the class D cephalosporinase OXA-15, compared with Avibactam": "more active than Avibactam"}
{"smiles": "O=C1N2C[C@@H](CC[C@H]2c2nnc(C3CCNCC3)s2)N1OS(=O)(=O)O", "note": "[Compound 719, (2S,5R)-7-oxo-2-(5-(piperidin-4-yl)-1,3,4-thiadiazol-2-yl)-1,6-diazabicyclo[3.2.1]octan-6-yl hydrogen sulfate]", "activity against bacterial strains that express the class D cephalosporinase OXA-15, compared with Avibactam": "more active than Avibactam"}
{"smiles": "O=C1N2C[C@@H](CC[C@H]2c2nnc(CC3CNC3)o2)N1OS(=O)(=O)O", "note": "[Compound 725, (2S,5R)-2-(5-(azetidin-3-ylmethyl)-1,3,4-oxadiazol-2-yl)-7-oxo-1,6-diazabicyclo[3.2.1]octan-6-yl hydrogen sulfate]", "activity against bacterial strains that express the class D cephalosporinase OXA-15, compared with Avibactam": "more active than Avibactam"}
{"smiles": "NCC(O)Cc1nnc([C@@H]2CC[C@@H]3CN2C(=O)N3OS(=O)(=O)O)o1", "note": "(stereo partly drawn) [Compound 733, (2S,5R)-2-(5-(3-amino-2-hydroxypropyl)-1,3,4-oxadiazol-2-yl)-7-oxo-1,6-diazabicyclo[3.2.1]octan-6-yl hydrogen sulfate]", "activity against bacterial strains that express the class D cephalosporinase OXA-15, compared with Avibactam": "more active than Avibactam"}
{"smiles": "N=C(N)N[C@H]1C[C@H](c2nnc([C@@H]3CC[C@@H]4CN3C(=O)N4OS(=O)(=O)O)o2)C1", "note": "[Compound 748, (2S,5R)-2-(5-((1r,3S)-3-guanidinocyclobutyl)-1,3,4-oxadiazol-2-yl)-7-oxo-1,6-diazabicyclo[3.2.1]octan-6-yl hydrogen sulfate]", "activity against bacterial strains that express the class D cephalosporinase OXA-15, compared with Avibactam": "more active than Avibactam"}
{"smiles": "N[C@H]1C[C@H](NCc2nnc([C@@H]3CC[C@@H]4CN3C(=O)N4OS(=O)(=O)O)o2)C1", "note": "[Compound 757, (2S,5R)-2-(5-((((1r,3S)-3-aminocyclobutyl)amino)methyl)-1,3,4-oxadiazol-2-yl)-7-oxo-1,6-diazabicyclo[3.2.1]octan-6-yl hydrogen sulfate]", "activity against bacterial strains that express the class D cephalosporinase OXA-15, compared with Avibactam": "more active than Avibactam"}
{"smiles": "O=C1N2C[C@@H](CC[C@H]2c2nnc(CNC3CCNCC3)o2)N1OS(=O)(=O)O", "note": "[Compound 769, (2S,5R)-7-oxo-2-(5-((piperidin-4-ylamino)methyl)-1,3,4-oxadiazol-2-yl)-1,6-diazabicyclo[3.2.1]octan-6-yl hydrogen sulfate]", "activity against bacterial strains that express the class D cephalosporinase OXA-15, compared with Avibactam": "more active than Avibactam"}
{"smiles": "NC1CCN(c2nnc([C@@H]3CC[C@@H]4CN3C(=O)N4OS(=O)(=O)O)o2)CC1", "note": "[Compound 773, (2S,5R)-2-(5-(4-aminopiperidin-1-yl)-1,3,4-oxadiazol-2-yl)-7-oxo-1,6-diazabicyclo[3.2.1]octan-6-yl hydrogen sulfate]", "activity against bacterial strains that express the class D cephalosporinase OXA-15, compared with Avibactam": "more active than Avibactam"}
{"smiles": "O=C1N2C[C@@H](CC[C@H]2c2nnc([C@@H]3CNCCN3)o2)N1OS(=O)(=O)O", "note": "[Compound 778, (2S,5R)-7-oxo-2-(5-((S)-piperazin-2-yl)-1,3,4-oxadiazol-2-yl)-1,6-diazabicyclo[3.2.1]octan-6-yl hydrogen sulfate]", "activity against bacterial strains that express the class D cephalosporinase OXA-15, compared with Avibactam": "more active than Avibactam"}
{"smiles": "N[C@H]1CC[C@@H](c2nnc([C@@H]3CC[C@@H]4CN3C(=O)N4OS(=O)(=O)O)o2)CC1", "note": "[Compound 780, (2S,5R)-2-(5-((1s,4R)-4-aminocyclohexyl)-1,3,4-oxadiazol-2-yl)-7-oxo-1,6-diazabicyclo[3.2.1]octan-6-yl hydrogen sulfate]", "activity against bacterial strains that express the class D cephalosporinase OXA-15, compared with Avibactam": "more active than Avibactam"}
{"smiles": "N[C@H]1CC[C@H](c2nnc([C@@H]3CC[C@@H]4CN3C(=O)N4OS(=O)(=O)O)o2)CC1", "note": "[Compound 781, (2S,5R)-2-(5-((1r,4S)-4-aminocyclohexyl)-1,3,4-oxadiazol-2-yl)-7-oxo-1,6-diazabicyclo[3.2.1]octan-6-yl hydrogen sulfate]", "activity against bacterial strains that express the class D cephalosporinase OXA-15, compared with Avibactam": "more active than Avibactam"}
{"smiles": "O=C1N2C[C@@H](CC[C@H]2c2nnc(CCCN3CCNCC3)o2)N1OS(=O)(=O)O", "note": "[Compound 792, (2S,5R)-7-oxo-2-(5-(3-(piperazin-1-yl)propyl)-1,3,4-oxadiazol-2-yl)-1,6-diazabicyclo[3.2.1]octan-6-yl hydrogen sulfate]", "activity against bacterial strains that express the class D cephalosporinase OXA-15, compared with Avibactam": "more active than Avibactam"}
{"smiles": "O=C1N2C[C@@H](CC[C@H]2c2nnc(N3CCNCC3)s2)N1OS(=O)(=O)O", "note": "[Compound 797, (2S,5R)-7-oxo-2-(5-(piperazin-1-yl)-1,3,4-thiadiazol-2-yl)-1,6-diazabicyclo[3.2.1]octan-6-yl hydrogen sulfate]", "activity against bacterial strains that express the class D cephalosporinase OXA-15, compared with Avibactam": "more active than Avibactam"}
